# From ChEMBL document CHEMBL5029195, “Substituted Imidazole Carboxamides as Novel Antibacterial Agents” (2022)
# System: Acinetobacter baumannii
# Assay: Antibacterial activity against Acinetobacter baumannii ATCC 17978 assessed as inhibition of bacterial growth after 16 hrs by two fold dilution method
# Format: functional
row,Structure (SMILES),IC90
1,CN(C)CCCN1CCN(C(=O)c2ccc(NC(=O)c3ncc(-c4ccc(OCC#N)c(F)c4F)n3C)cc2Cl)CC1,0.07 µM
2,CNCCN1CCN(C(=O)c2ccc(NC(=O)c3ncc(-c4ccc(OC)c(F)c4F)n3C)cc2Cl)CC1,0.08 µM
3,CCc1cc(NC(=O)c2ncc(-c3ccc(OC)cc3Cl)n2C)ccc1C(=O)N1CCN(CCNC)CC1,2.3 µM
4,COc1ccc(-c2cnc(C(=O)Nc3ccc(C(=O)N4CCN(C(=O)[C@@H]5C[C@@H](O)CN5)CC4)c(Cl)c3)n2C)c(F)c1F,0.1 µM
5,Cn1c(-c2ccc(OCC#N)c(F)c2F)cnc1C(=O)Nc1ccc(C(=O)N2CCC(C(=O)N3CCSCC3)CC2)c(Cl)c1,0.21 µM
6,COc1ccc(-c2cnc(C(=O)Nc3ccc(C(=O)N4CCC(CN)CC4)c(Cl)c3)n2C)c(F)c1F,0.3 µM

# System: Acinetobacter baumannii
# Assay: Antibacterial activity against Acinetobacter baumannii ATCC 17961 assessed as inhibition of bacterial growth after 16 hrs by two fold dilution method
# Format: functional
row,Structure (SMILES),IC90
1,COc1ccc(-c2cnc(C(=O)Nc3ccc(C(=O)N4CCC(C(=O)[C@H]5CCNC[C@H]5O)CC4)c(Cl)c3)n2C)c(F)c1F,0.09 µM
2,COc1ccc(-c2cnc(C(=O)Nc3ccc(C(=O)N4CCC(C(=O)NCCC(=O)O)CC4)c(Cl)c3)n2C)c(F)c1F,3.3 µM
3,COc1ccc(-c2cnc(C(=O)Nc3ccc(C(=O)N4CCC(OCCN)CC4)c(Cl)c3)n2C)c(F)c1F,0.04 µM
4,CCc1cc(NC(=O)c2ncc(-c3ccc(OC)c(F)c3F)n2C)ccc1C(=O)N1CCN(CCCN(C)C)CC1,0.26 µM
5,Cn1c(-c2ccc(OC(F)F)c(F)c2F)cnc1C(=O)Nc1ccc(C(=O)N2CCC(C(=O)NC[C@H]3CCNC3)CC2)c(Cl)c1,0.04 µM
6,Cn1c(-c2ccc(OC(F)F)c(F)c2F)cnc1C(=O)Nc1ccc(C(=O)N2CCC(C(=O)N3CCC(C(N)=O)C3)CC2)c(Cl)c1 (centres undefined),0.15 µM
7,COc1ccc(-c2cnc(C(=O)Nc3ccc(C(=O)N4CCC(C(=O)[C@@H]5CCNC[C@H]5O)CC4)c(Cl)c3)n2C)c(F)c1F,0.1 µM
8,COc1ccc(-c2cnc(C(=O)Nc3ccc(C(=O)N4CCC(CCN)CC4)c(Cl)c3)n2C)c(F)c1F,0.03 µM
